According to patent US8173627B2, “Neuroprotective effect of solubilized UDCA in focal ischemic model” (priority 2004, dated 2012):

Test: HPLC bile acid analysis of plasma and brain
Assay type: in vivo, rat
Conditions: after UDCA and TUDCA administration
Description: Rats were separated into 5 groups, and each received a single injection of vehicle (n=18), 25 mg s-UDCA/Kg (n=9), 100 mg UDCA/Kg (n=18), 400 mg UDCA/kg (n=9), and 400 mg TUDCA/kg (n=9) intravenously immediately after reperfusion.
Blood and brain were collected 1 hour after s-UDCA, TUDCA, or vehicle injection, and were assessed by HPLC for bile acid analysis. Briefly, whole blood was drawn, clotted, and centrifuged and plasma was separated and frozen. After appropriate, humane anesthesia (5% chloral hydrate) and transcardial phosphate buffer perfusion, brains were removed, flash-frozen, and stored at −70° C. Free UDCA concentrations were measured by HPLC (JASCO HPLC Bile Acids Analysis System). Bile acids were assessed by HPLC according to, for example, U.S. patent application Ser. No. 09/778,154 filed Feb. 5, 2001, the full disclosure of which is hereby incorporated by reference.

C[C@H](CCC(=O)NCCS(=O)(=O)O)[C@H]1CC[C@H]2[C@@H]3[C@@H](O)C[C@@H]4C[C@H](O)CC[C@]4(C)[C@H]3CC[C@]12C [TUDCA, tauroursodeoxycholic acid]
TUDCA detected in brain as well as blood: not detected
